Legend:
[1] = molecular target: T1, C-C chemokine receptor type 10 (Homo sapiens, UniProt P46092); experiment: Antagonist activity at human CCR10 expressed in CHOK1 cells coexpressing aequorin/Galphaq assessed as inhibition of human CCL27-dependent calcium flux in presence of coelenterazine H by chemiluminescence assay; format: functional, cell-based, CHO-K1
T1 sequence (P46092 whole entry): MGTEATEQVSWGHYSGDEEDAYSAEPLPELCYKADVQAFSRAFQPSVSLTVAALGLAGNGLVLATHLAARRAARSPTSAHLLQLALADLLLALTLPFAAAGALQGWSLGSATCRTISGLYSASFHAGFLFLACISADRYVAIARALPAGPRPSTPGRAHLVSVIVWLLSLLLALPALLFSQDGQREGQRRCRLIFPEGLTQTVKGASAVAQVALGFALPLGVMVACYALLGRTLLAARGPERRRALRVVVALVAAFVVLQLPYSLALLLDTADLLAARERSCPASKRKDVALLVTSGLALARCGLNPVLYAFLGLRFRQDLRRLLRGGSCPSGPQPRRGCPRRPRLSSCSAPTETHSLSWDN

[2] = Protein binding in Balb/C mouse plasma at 100 mg/kg, ip bid; format: ADME, organism-based; details: in vivo
[3] = molecular target: T2, C-C chemokine receptor type 10 (Mus musculus, UniProt Q9JL21); experiment: Antagonist activity at mouse CCR10 expressed in CHOK1 cells coexpressing aequorin/Galphaq assessed as inhibition of CCL27-dependent calcium flux in presence of coelenterazine H by chemiluminescence assay; format: functional, cell-based, CHO-K1
T2 sequence (Q9JL21 whole entry): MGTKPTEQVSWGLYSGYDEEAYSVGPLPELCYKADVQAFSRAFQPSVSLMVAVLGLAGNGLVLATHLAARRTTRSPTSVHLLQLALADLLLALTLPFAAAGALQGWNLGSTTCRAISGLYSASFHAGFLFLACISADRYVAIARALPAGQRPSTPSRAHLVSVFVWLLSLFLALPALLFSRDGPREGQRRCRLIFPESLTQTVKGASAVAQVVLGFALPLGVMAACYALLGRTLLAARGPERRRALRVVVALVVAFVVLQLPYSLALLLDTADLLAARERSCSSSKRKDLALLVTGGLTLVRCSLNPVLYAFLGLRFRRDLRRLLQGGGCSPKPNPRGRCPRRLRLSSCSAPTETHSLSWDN

[4] = Plasma concentration in Balb/C mouse at 30 mg/kg, ip bid measured after 1 hr; format: ADME, organism-based; details: in vivo, 1 h
[5] = Plasma concentration in Balb/C mouse at 100 mg/kg, ip bid measured after 1 hr; format: ADME, organism-based; details: in vivo
[6] = molecular target: T1, C-C chemokine receptor type 10; experiment: Antagonist activity at human CCR10 expressed in CHOK1 cells coexpressing aequorin/Galphaq assessed as inhibition of CCL27-dependent calcium flux in presence of coelenterazine H by FLIPR assay; format: functional, cell-based, CHO-K1
[7] = molecular target: T1, C-C chemokine receptor type 10; experiment: Antagonist activity at human CCR10 expressed in CHOK1 cells coexpressing aequorin/Galphaq assessed as inhibition of human CCL28-dependent calcium flux by FLIPR assay; format: functional, cell-based, CHO-K1
[8] = molecular target: T1, C-C chemokine receptor type 10; experiment: Antagonist activity at human CCR10 expressed in CHOK1 cells coexpressing aequorin/Galphaq assessed as inhibition of human CCL28-dependent calcium flux by chemiluminescence assay; format: functional, cell-based, CHO-K1

Compound	IC50 ([1]; read-out: pIC50 (converted))	also measured
CN(C)C(=O)C(CCn1cccc1C#N)NS(=O)(=O)c1cc(Cl)c(N)c(Cl)c1 (stereo not drawn)	> 10000 nM	
CC1CCN(C(=O)[C@H](CCn2ccnc2[N+](=O)[O-])NS(=O)(=O)c2cc(Cl)c(N)c(Cl)c2)CC1	> 20000 nM	
CC1CCN(C(=O)[C@@H](CCn2ccnc2[N+](=O)[O-])NS(=O)(=O)c2cc(Cl)c(N)c(Cl)c2)CC1	501 nM	
CC1CCCN(C(=O)C(CCn2cccc2C#N)NS(=O)(=O)c2cccc3[nH]ccc23)C1 (stereo not drawn)	63.1 nM	
N#Cc1cccn1CCC(NS(=O)(=O)c1cccc2[nH]ccc12)C(=O)N1CCCCC1 (stereo not drawn)	10 nM	
CC1CCN(C(=O)C(CCn2cccc2C#N)NS(=O)(=O)c2cccc3[nH]ccc23)CC1 (stereo in doubt; form 2)	3160 nM	PPB [2]: 99%; IC50 [3]: 15800 nM; concentration [4]: 3.2 µM; concentration [5]: 18 µM
CC1CCN(C(=O)C(CCn2cccc2C#N)NS(=O)(=O)c2cccc3cc[nH]c23)CC1 (stereo not drawn)	251 nM	IC50 [3]: 7940 nM
CC1CCN(C(=O)C(CCn2ccnc2)NS(=O)(=O)c2cc(Cl)c(N)c(Cl)c2)CC1 (stereo not drawn)		IC50 [6]: > 20000 nM
CC1CCN(C(=O)C(CCn2cccc2C#N)NS(=O)(=O)c2cccc3c2ccn3C)CC1 (stereo not drawn)	126 nM	IC50 [3]: 6310 nM
CC1CCN(C(=O)C(CCc2ccccc2Cl)NS(=O)(=O)c2cc(Cl)c(N)c(Cl)c2)CC1 (stereo not drawn)	126 nM	
CC1CCN(C(=O)C(CCn2ccnc2Cl)NS(=O)(=O)c2cc(Cl)c(N)c(Cl)c2)CC1 (stereo not drawn)	501 nM	IC50 [3]: > 20000 nM
CC1CCN(C(=O)C(CCn2ccnc2[N+](=O)[O-])NS(=O)(=O)c2cc(Cl)c(N)c(Cl)c2)CC1 (stereo not drawn)		IC50 [7]: 794 nM; IC50 [6]: 251 nM; IC50 [8]: 794 nM; IC50 [3]: > 20000 nM; IC50 ([1]; read-out: IC50): 690 nM
CC1CCN(C(=O)C(CCn2cccc2)NS(=O)(=O)c2cc(Cl)c(N)c(Cl)c2)CC1 (stereo not drawn)	1260 nM	
N#Cc1cccn1CCC(NS(=O)(=O)c1cc(Cl)c(N)c(Cl)c1)C(=O)N1CCC(C(F)(F)F)CC1 (stereo not drawn)	398 nM	
CC1CCN(C(=O)C(CCn2nccn2)NS(=O)(=O)c2cc(Cl)c(N)c(Cl)c2)CC1 (stereo not drawn)	3160 nM	
CC1CCN(C(=O)C(CCn2cccc2C#N)NS(=O)(=O)c2ccc3[nH]ccc3c2)CC1 (stereo not drawn)	200 nM	
CC1CCN(C(=O)[C@@H](CCc2ccccc2)NS(=O)(=O)c2cc(Cl)c(N)c(Cl)c2)CC1	631 nM	IC50 [3]: 10000 nM
N#Cc1cccn1CCC(NS(=O)(=O)c1cc(Cl)c(N)c(Cl)c1)C(=O)N1CCCCC1 (stereo not drawn)	158 nM	
Cc1ccc(S(=O)(=O)NC(CCn2cccc2C#N)C(=O)N2CCC(C)CC2)c(C)c1N (stereo not drawn)	100 nM	
CN(C)C(=O)C(CCn1cccc1C#N)NS(=O)(=O)c1cccc2[nH]ccc12 (stereo not drawn)	3980 nM	
CC1CCN(C(=O)C(CCn2cccn2)NS(=O)(=O)c2cc(Cl)c(N)c(Cl)c2)CC1 (stereo not drawn)	1580 nM	

— ChEMBL document CHEMBL3862010, “N-Arylsulfonyl-α-amino carboxamides are potent and selective inhibitors of the chemokine receptor CCR10 that show efficacy in the murine DNFB model of contact hypersensitivity” (Bioorg Med Chem Lett, 2016)
